Test results as given in BindingDB's records for doi:10.1016/j.bmcl.2004.09.023 (Dupont Pharmaceuticals, 2004).

Tests used:
[1] = biological target: Cyclin-dependent kinase 2/G1/S-specific cyclin-E1 (Homo sapiens, UniProt P24941); test: Kinase Inhibition Assay
Method: (§1) The enzyme was assayed with substrate GST-Rb in the presence of 50 mM ATP/[gamma-32P] ATP, and capturing the 32-P labeled reaction products on GSH-Sepharose beads. […] Use of 32P-labeled ATP allows this transfer to be monitored by scintillation counting.

[2] = biological target: Cyclin-dependent kinase 4/G1/S-specific cyclin-D1 (Homo sapiens, UniProt P11802); test: Kinase Inhibition Assay
Sequence of Cyclin-dependent kinase 4/G1/S-specific cyclin-D1 (P11802 whole entry): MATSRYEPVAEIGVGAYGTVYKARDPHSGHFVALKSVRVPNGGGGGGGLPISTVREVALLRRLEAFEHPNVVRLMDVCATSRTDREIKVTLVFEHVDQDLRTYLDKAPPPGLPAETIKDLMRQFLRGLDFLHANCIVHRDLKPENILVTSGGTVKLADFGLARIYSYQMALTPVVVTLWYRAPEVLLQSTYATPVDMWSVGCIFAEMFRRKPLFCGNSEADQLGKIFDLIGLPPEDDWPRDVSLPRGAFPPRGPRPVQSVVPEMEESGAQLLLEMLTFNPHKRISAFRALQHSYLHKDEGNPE
Sequence of Cyclin-dependent kinase 4/G1/S-specific cyclin-D1 (P24385 whole entry, further chain): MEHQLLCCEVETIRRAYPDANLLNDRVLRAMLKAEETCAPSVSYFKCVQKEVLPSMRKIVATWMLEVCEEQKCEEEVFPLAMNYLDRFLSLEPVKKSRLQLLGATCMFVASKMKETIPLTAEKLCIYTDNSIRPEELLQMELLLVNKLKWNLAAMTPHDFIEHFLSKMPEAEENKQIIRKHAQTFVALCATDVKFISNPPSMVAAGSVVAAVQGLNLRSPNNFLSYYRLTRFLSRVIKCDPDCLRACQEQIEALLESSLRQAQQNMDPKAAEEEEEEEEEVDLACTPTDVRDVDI
Method: as §1

IC50 ([1]; pH 7.6, 22 °C) [µM]	IC50 [1] [µM]	IC50 [2] [µM]	SMILES
0.053	–	–	COc1ccc(-c2[nH]nc3c2C(=O)c2c(NC(=O)NNC(=O)c4cccc5ccccc45)cccc2-3)cc1 [N-({[3-(4-methoxyphenyl)-4-oxo-2H,4H-indeno[1,2-c]pyrazol-5-yl]carbamoyl}amino)naphthalene-1-carboxamide]
0.014	–	–	COc1ccc(-c2[nH]nc3c2C(=O)c2c(NC(=O)NNC(=O)c4ccccc4OC)cccc2-3)cc1 [2-methoxy-N-({[3-(4-methoxyphenyl)-4-oxo-2H,4H-indeno[1,2-c]pyrazol-5-yl]carbamoyl}amino)benzamide]
0.019	–	–	COc1ccc(-c2[nH]nc3c2C(=O)c2c(NC(=O)NNC(=O)C(C)C)cccc2-3)cc1 [N-({[3-(4-methoxyphenyl)-4-oxo-2H,4H-indeno[1,2-c]pyrazol-5-yl]carbamoyl}amino)-2-methylpropanamide]
–	0.012	–	COc1ccc(-c2[nH]nc3c2C(=O)c2c(NC(=O)NNC(=O)c4ccccc4)cccc2-3)cc1 [N-({[3-(4-methoxyphenyl)-4-oxo-2H,4H-indeno[1,2-c]pyrazol-5-yl]carbamoyl}amino)benzamide]
–	0.016	0.012	COc1ccc(-c2[nH]nc3c2C(=O)c2c(NC(=O)NNC(=O)c4ccc(O)cc4O)cccc2-3)cc1 [2,4-dihydroxy-N-({[3-(4-methoxyphenyl)-4-oxo-2H,4H-indeno[1,2-c]pyrazol-5-yl]carbamoyl}amino)benzamide]
0.024	–	–	COc1ccc(-c2[nH]nc3c2C(=O)c2c(NC(=O)NNC(=O)c4ccc(O)c(N)c4)cccc2-3)cc1 [3-amino-4-hydroxy-N-({[3-(4-methoxyphenyl)-4-oxo-2H,4H-indeno[1,2-c]pyrazol-5-yl]carbamoyl}amino)benzamide]
0.015	–	0.011	COc1ccc(C(=O)NNC(=O)Nc2cccc3c2C(=O)c2c(-c4ccc(OC)cc4)n[nH]c2-3)cc1 [4-methoxy-N-({[3-(4-methoxyphenyl)-4-oxo-2H,4H-indeno[1,2-c]pyrazol-5-yl]carbamoyl}amino)benzamide]
–	0.035	0.013	COc1ccc(-c2[nH]nc3c2C(=O)c2c(NC(=O)NNC(=O)c4ccc5ccccc5c4)cccc2-3)cc1 [N-({[3-(4-methoxyphenyl)-4-oxo-2H,4H-indeno[1,2-c]pyrazol-5-yl]carbamoyl}amino)naphthalene-2-carboxamide]
–	0.033	0.027	COc1ccc(-c2[nH]nc3c2C(=O)c2c(NC(=O)NNC(=O)Cc4ccccc4)cccc2-3)cc1 [N-({[3-(4-methoxyphenyl)-4-oxo-2H,4H-indeno[1,2-c]pyrazol-5-yl]carbamoyl}amino)-2-phenylacetamide]
0.013	–	–	COc1ccc(-c2[nH]nc3c2C(=O)c2c(NC(=O)NNC(=O)CCc4ccc(O)cc4)cccc2-3)cc1 [3-(4-hydroxyphenyl)-N-({[3-(4-methoxyphenyl)-4-oxo-2H,4H-indeno[1,2-c]pyrazol-5-yl]carbamoyl}amino)propanamide]
0.019	–	–	COc1ccc(-c2[nH]nc3c2C(=O)c2c(NC(=O)NNC(=O)Nc4ccccc4)cccc2-3)cc1 [3-[3-(4-methoxyphenyl)-4-oxo-2H,4H-indeno[1,2-c]pyrazol-5-yl]-1-[(phenylcarbamoyl)amino]urea]
0.013	–	–	COc1ccc(-c2[nH]nc3c2C(=O)c2c(NC(=O)NNC(=O)c4cccc(C)c4)cccc2-3)cc1 [N-({[3-(4-methoxyphenyl)-4-oxo-2H,4H-indeno[1,2-c]pyrazol-5-yl]carbamoyl}amino)-3-methylbenzamide]
–	0.013	–	COc1ccc(-c2[nH]nc3c2C(=O)c2c(NC(=O)NNC(=O)c4cccc(N)c4)cccc2-3)cc1 [3-amino-N-({[3-(4-methoxyphenyl)-4-oxo-2H,4H-indeno[1,2-c]pyrazol-5-yl]carbamoyl}amino)benzamide]
0.024	–	–	COc1ccc(-c2[nH]nc3c2C(=O)c2c(NC(=O)NNC(=O)c4cccc([N+](=O)[O-])c4)cccc2-3)cc1 [N-({[3-(4-methoxyphenyl)-4-oxo-2H,4H-indeno[1,2-c]pyrazol-5-yl]carbamoyl}amino)-3-nitrobenzamide]
–	0.012	–	COc1ccc(-c2[nH]nc3c2C(=O)c2c(NC(=O)NNC(=O)c4ccncc4)cccc2-3)cc1 [N-({[3-(4-methoxyphenyl)-4-oxo-2H,4H-indeno[1,2-c]pyrazol-5-yl]carbamoyl}amino)pyridine-4-carboxamide]
–	–	0.024	COc1ccc(-c2[nH]nc3c2C(=O)c2c(NC(=O)NNC(=O)c4cc(OC)cc(OC)c4)cccc2-3)cc1 [3,5-dimethoxy-N-({[3-(4-methoxyphenyl)-4-oxo-2H,4H-indeno[1,2-c]pyrazol-5-yl]carbamoyl}amino)benzamide]
–	0.016	–	COc1ccc(-c2[nH]nc3c2C(=O)c2c(NC(=O)NNC(=O)c4cccnc4)cccc2-3)cc1 [N-({[3-(4-methoxyphenyl)-4-oxo-2H,4H-indeno[1,2-c]pyrazol-5-yl]carbamoyl}amino)pyridine-3-carboxamide]
–	0.097	–	COc1ccc(-c2[nH]nc3c2C(=O)c2c(NC(=O)NNC(=O)C(N)=O)cccc2-3)cc1 [N-({[3-(4-methoxyphenyl)-4-oxo-2H,4H-indeno[1,2-c]pyrazol-5-yl]carbamoyl}amino)ethanediamide]
0.016	–	–	COC(=O)NNC(=O)Nc1cccc2c1C(=O)c1c-2n[nH]c1-c1ccc(OC)cc1 [methoxy-N-({[3-(4-methoxyphenyl)-4-oxo-2H,4H-indeno[1,2-c]pyrazol-5-yl]carbamoyl}amino)formamide]
0.024	–	–	COc1ccc(-c2[nH]nc3c2C(=O)c2c(NC(=O)NNC(=O)c4ccc(C)cc4)cccc2-3)cc1 [N-({[3-(4-methoxyphenyl)-4-oxo-2H,4H-indeno[1,2-c]pyrazol-5-yl]carbamoyl}amino)-4-methylbenzamide]
0.036	–	0.028	COc1ccc(-c2[nH]nc3c2C(=O)c2c(NC(=O)NNC(=O)c4cc(Cl)ccc4Cl)cccc2-3)cc1 [2,5-dichloro-N-({[3-(4-methoxyphenyl)-4-oxo-2H,4H-indeno[1,2-c]pyrazol-5-yl]carbamoyl}amino)benzamide]
0.039	–	0.016	COc1ccc(-c2[nH]nc3c2C(=O)c2c(NC(=O)NNC(=O)c4cc(N)cc(N)c4)cccc2-3)cc1 [3,5-diamino-N-({[3-(4-methoxyphenyl)-4-oxo-2H,4H-indeno[1,2-c]pyrazol-5-yl]carbamoyl}amino)benzamide]
–	0.037	0.057	COc1ccc(-c2[nH]nc3c2C(=O)c2c(NC(=O)NNC(C)=O)cccc2-3)cc1 [N-({[3-(4-methoxyphenyl)-4-oxo-2H,4H-indeno[1,2-c]pyrazol-5-yl]carbamoyl}amino)acetamide]
